Assay results taken from ChEMBL document CHEMBL1201862, “PubChem BioAssay data set” (2004).
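How tested: cells in 96-well plates exposed to compound for 48 hours at five concentrations. GI50 = concentration required for 50% inhibition of growth.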 Active and inactive are the calls of the source. No stated cut-off is given here; in the data, active = GI50 up to about 1.1 µM and inactive = higher.

How the values were obtained:
Experiment in all cases: inhibition of tumour cell growth, NCI panel, 48 h
RPMI-8226 = test system: RPMI-8226
SR = test system: SR
RXF 393 = test system: RXF 393
786-0 = test system: 786-0
HCT-116 = test system: HCT-116
Hs-578T = test system: Hs-578T
SK-OV-3 = test system: SK-OV-3
OVCAR-3 = test system: OVCAR-3
SF-295 = test system: SF-295
A498 = test system: A498
EKVX = test system: EKVX
M14 = test system: M14
IGROV-1 = test system: IGROV-1
NCI-H522 = test system: NCI-H522
HCT-15 = test system: HCT-15
SF-539 = test system: SF-539
OVCAR-8 = test system: OVCAR-8
HL-60 = test system: HL-60
SK-MEL-28 = test system: SK-MEL-28
OVCAR-4 = test system: OVCAR-4
KM12 = test system: KM12
MDA-N = test system: MDA-N
A549 = test system: A549
NCI-H23 = test system: NCI-H23
UACC-62 = test system: UACC-62
NCI-H226 = test system: NCI-H226
DU-145 = test system: DU-145
CCRF-CEM = test system: CCRF-CEM
SW-620 = test system: SW-620
U-251 = test system: U-251
NCI-H460 = test system: NCI-H460
PC-3 = test system: PC-3
UACC-257 = test system: UACC-257
TK-10 = test system: TK-10
MDA-MB-435 = test system: MDA-MB-435
SNB-19 = test system: SNB-19
MOLT-4 = test system: MOLT-4
HOP-62 = test system: HOP-62
SN12C = test system: SN12C
Malme-3M = test system: Malme-3M
SNB-75 = test system: SNB-75
SK-MEL-5 = test system: SK-MEL-5
LOX IMVI = test system: LOX IMVI
NCI/ADR-RES = test system: NCI/ADR-RES
HOP-92 = test system: HOP-92
OVCAR-5 = test system: OVCAR-5
SF-268 = test system: SF-268
BT-549 = test system: BT-549
CAKI-1 = test system: CAKI-1
MDA-MB-231 = test system: MDA-MB-231
SK-MEL-2 = test system: SK-MEL-2
HT-29 = test system: HT-29
UO-31 = test system: UO-31
COLO 205 = test system: COLO 205
ACHN = test system: ACHN
MCF7 = test system: MCF7
HCC 2998 = test system: HCC 2998
K562 = test system: K562

## CCN1CCCCC(=N\O)/C(=N/O)CCCC1
RPMI-8226
  GI50: > 100 µM (inactive)
SR
  GI50: > 100 µM (inactive)
RXF 393
  GI50: > 100 µM (inactive)
786-0
  GI50: > 100 µM (inactive)
HCT-116
  GI50: > 100 µM (inactive)
Hs-578T
  GI50: > 100 µM (inactive)
SK-OV-3
  GI50: > 100 µM (inactive)
OVCAR-3
  GI50: > 100 µM (inactive)
SF-295
  GI50: > 100 µM (inactive)
A498
  GI50: > 100 µM (inactive)
EKVX
  GI50: 26.1 µM (inactive)
M14
  GI50: > 100 µM (inactive)
IGROV-1
  GI50: > 100 µM (inactive)
NCI-H522
  GI50: > 100 µM (inactive)
HCT-15
  GI50: > 100 µM
SF-539
  GI50: > 100 µM (inactive)
OVCAR-8
  GI50: > 100 µM (inactive)
HL-60
  GI50: > 100 µM (inactive)
SK-MEL-28
  GI50: > 100 µM (inactive)
OVCAR-4
  GI50: > 100 µM (inactive)
KM12
  GI50: > 100 µM (inactive)
MDA-N
  GI50: > 100 µM (inactive)
A549
  GI50: > 100 µM (inactive)
NCI-H23
  GI50: > 100 µM (inactive)
UACC-62
  GI50: > 100 µM (inactive)
NCI-H226
  GI50: > 100 µM (inactive)
DU-145
  GI50: > 100 µM (inactive)
CCRF-CEM
  GI50: > 100 µM (inactive)
SW-620
  GI50: > 100 µM (inactive)
U-251
  GI50: > 100 µM (inactive)
NCI-H460
  GI50: > 100 µM (inactive)
PC-3
  GI50: > 100 µM (inactive)
UACC-257
  GI50: > 100 µM (inactive)
TK-10
  GI50: > 100 µM (inactive)
MDA-MB-435
  GI50: > 100 µM (inactive)
SNB-19
  GI50: > 100 µM (inactive)
MOLT-4
  GI50: > 100 µM (inactive)
HOP-62
  GI50: > 100 µM (inactive)
SN12C
  GI50: > 100 µM (inactive)
Malme-3M
  GI50: > 100 µM (inactive)
SNB-75
  GI50: > 100 µM (inactive)
SK-MEL-5
  GI50: > 100 µM (inactive)
LOX IMVI
  GI50: > 100 µM (inactive)
NCI/ADR-RES
  GI50: > 100 µM (inactive)
HOP-92
  GI50: > 100 µM (inactive)
OVCAR-5
  GI50: > 100 µM (inactive)
SF-268
  GI50: > 100 µM (inactive)
BT-549
  GI50: > 100 µM (inactive)
CAKI-1
  GI50: > 100 µM (inactive)
MDA-MB-231
  GI50: > 100 µM (inactive)
SK-MEL-2
  GI50: > 100 µM (inactive)
HT-29
  GI50: > 100 µM (inactive)
UO-31
  GI50: > 100 µM (inactive)
COLO 205
  GI50: > 100 µM (inactive)
ACHN
  GI50: > 100 µM (inactive)
MCF7
  GI50: > 100 µM (inactive)

## CCOC(=O)C(Cc1c(-c2[nH]c3ccccc3c2CC(NC(=O)CNC(C)=O)C(=O)OCC)[nH]c2ccccc12)NC(=O)CNC(C)=O (stereo unspecified)
RPMI-8226
  GI50: > 100 µM (inactive)
SR
  GI50: 40.4 µM (inactive)
HCT-116
  GI50: > 100 µM (inactive)
Hs-578T
  GI50: 32.6 µM (inactive)
SK-OV-3
  GI50: > 100 µM (inactive)
OVCAR-3
  GI50: 42.3 µM (inactive)
HCC 2998
  GI50: 23.1 µM (inactive)
SF-295
  GI50: > 100 µM (inactive)
A498
  GI50: 65 µM (inactive)
EKVX
  GI50: > 100 µM (inactive)
M14
  GI50: 71.6 µM (inactive)
IGROV-1
  GI50: > 100 µM (inactive)
NCI-H522
  GI50: 27.9 µM (inactive)
HCT-15
  GI50: > 100 µM
SK-MEL-28
  GI50: 45.4 µM (inactive)
OVCAR-4
  GI50: > 100 µM (inactive)
KM12
  GI50: > 100 µM (inactive)
MDA-N
  GI50: > 100 µM (inactive)
A549
  GI50: > 100 µM (inactive)
NCI-H23
  GI50: > 100 µM (inactive)
UACC-62
  GI50: 74.3 µM (inactive)
DU-145
  GI50: > 100 µM (inactive)
CCRF-CEM
  GI50: > 100 µM (inactive)
SW-620
  GI50: > 100 µM (inactive)
U-251
  GI50: > 100 µM (inactive)
NCI-H460
  GI50: > 100 µM (inactive)
PC-3
  GI50: > 100 µM (inactive)
UACC-257
  GI50: 27.4 µM (inactive)
TK-10
  GI50: > 100 µM (inactive)
MDA-MB-435
  GI50: > 100 µM (inactive)
SNB-19
  GI50: > 100 µM (inactive)
MOLT-4
  GI50: 53.2 µM (inactive)
HOP-62
  GI50: > 100 µM (inactive)
SN12C
  GI50: 56 µM (inactive)
Malme-3M
  GI50: 20 µM (inactive)
SNB-75
  GI50: 22.1 µM (inactive)
SK-MEL-5
  GI50: 29.9 µM (inactive)
HOP-92
  GI50: 26.3 µM (inactive)
OVCAR-5
  GI50: > 100 µM (inactive)
SF-268
  GI50: 45.5 µM (inactive)
BT-549
  GI50: > 100 µM (inactive)
CAKI-1
  GI50: > 100 µM (inactive)
MDA-MB-231
  GI50: 16.5 µM (inactive)
SK-MEL-2
  GI50: 18.6 µM (inactive)
HT-29
  GI50: > 100 µM (inactive)
UO-31
  GI50: 77.4 µM (inactive)
COLO 205
  GI50: 18.6 µM (inactive)

## Cc1ccccc1-c1nc2c(N)nc(N)nc2nc1N
RPMI-8226
  GI50: > 100 µM (inactive)
SR
  GI50: 62.7 µM (inactive)
786-0
  GI50: 7.23 µM (inactive)
HCT-116
  GI50: 1.67 µM (inactive)
Hs-578T
  GI50: > 100 µM (inactive)
SK-OV-3
  GI50: > 100 µM (inactive)
OVCAR-3
  GI50: > 100 µM (inactive)
HCC 2998
  GI50: 25.2 µM (inactive)
SF-295
  GI50: 12.8 µM (inactive)
EKVX
  GI50: 38.1 µM (inactive)
M14
  GI50: > 100 µM (inactive)
IGROV-1
  GI50: 6.82 µM (inactive)
K562
  GI50: 0.723 µM (active)
NCI-H522
  GI50: 22.6 µM (inactive)
HCT-15
  GI50: 4.15 µM
SF-539
  GI50: 22.5 µM (inactive)
OVCAR-8
  GI50: 14.1 µM (inactive)
HL-60
  GI50: > 100 µM (inactive)
SK-MEL-28
  GI50: 67.9 µM (inactive)
OVCAR-4
  GI50: > 100 µM (inactive)
KM12
  GI50: 29.8 µM (inactive)
MDA-N
  GI50: 4.56 µM (inactive)
A549
  GI50: 3.22 µM (inactive)
NCI-H23
  GI50: 4.95 µM (inactive)
UACC-62
  GI50: 4.91 µM (inactive)
DU-145
  GI50: 8.17 µM (inactive)
CCRF-CEM
  GI50: 4.74 µM (inactive)
SW-620
  GI50: 4.86 µM (inactive)
U-251
  GI50: 4.33 µM (inactive)
NCI-H460
  GI50: 3.69 µM (inactive)
PC-3
  GI50: 4.46 µM (inactive)
UACC-257
  GI50: 86.3 µM (inactive)
TK-10
  GI50: > 100 µM (inactive)
MDA-MB-435
  GI50: 5.36 µM (inactive)
SNB-19
  GI50: 44.3 µM (inactive)
MOLT-4
  GI50: 3.77 µM (inactive)
HOP-62
  GI50: 25.9 µM (inactive)
SN12C
  GI50: 6.84 µM (inactive)
SNB-75
  GI50: 22.3 µM (inactive)
SK-MEL-5
  GI50: > 100 µM (inactive)
LOX IMVI
  GI50: 3.44 µM (inactive)
NCI/ADR-RES
  GI50: 27 µM (inactive)
OVCAR-5
  GI50: 39.9 µM (inactive)
SF-268
  GI50: 8.38 µM (inactive)
BT-549
  GI50: > 100 µM (inactive)
CAKI-1
  GI50: 9.35 µM (inactive)
MDA-MB-231
  GI50: 3.3 µM (inactive)
SK-MEL-2
  GI50: > 100 µM (inactive)
HT-29
  GI50: > 100 µM (inactive)
UO-31
  GI50: 12 µM (inactive)
COLO 205
  GI50: 25.5 µM (inactive)
ACHN
  GI50: 5.6 µM (inactive)
MCF7
  GI50: 30.2 µM (inactive)
